Legend:
[1] = target: recombinant human Bcl-2 D103Y protein (Homo sapiens (Human), UniProt P10415, D103Y); assay: Bcl-2-D103Y Biochemical Assay (TR-FRET); format: binding; conditions: for IC50: TR-FRET, FITC labeled Bak peptide; for Ratio of Bcl-2 D103Y/Bcl-2 WT: ratio of IC50; for ratio of Bcl-2 D103Y/Bcl-2 wt, compared with F91b in WO2019210828: comparison in words
Outline: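 Compounds titrated against the Bcl-2 D103Y–ligand interaction; inhibition derived from the TR-FRET emission ratio 490 nm/520 nm after 337 nm excitation. Four-parameter logistic fitting gave IC50.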

[2] = Metabolic Stability Study, liver microsome incubation (human); format: in vitro ADME; conditions: human liver microsomes 0.5 mg/mL, 1 μM compound, NADPH; for half-life at 1 μM: NA^# = very stable, beyond the detection limits, read-out: T1/2 (min) Human; for microsomal CLint at 1 μM: read-out: CLint (μL × min^−1 × mg^−1) Human
Description: (§1) Biological Example: Metabolic Stability Study
(§2) The metabolic stability of some compounds was evaluated by using the liver microsome incubation system in vitro. Briefly, the test compounds at 1 μM, were incubated with 0.5 mg/mL liver microsomes from different species (human, dog, rat and mouse) with an NADPH regenerating system at 37° C. Samples were quenched at three time points (0, 30, 60 min) with organic solvent containing internal standards, and the supernatant was analyzed for parent loss via LC-MS/MS. Midazolam was used as the positive control to validate the incubation system.
(§3) where Cprotein is the microsomal protein concentration in the incubation system.
(§4) The value of CLint and T1/2 of Example F132b in WO2019210818 and representative compounds of the disclosure were determined, and the results are shown in Table 5.

[3] = Metabolic Stability Study, liver microsome incubation (mouse); format: in vitro ADME; conditions: mouse liver microsomes 0.5 mg/mL, 1 μM compound, NADPH; for half-life at 1 μM: NA^# = very stable, beyond the detection limits, read-out: T1/2 (min) mouse; for microsomal CLint at 1 μM: read-out: CLint (μL × min^−1 × mg^−1) mouse
Description: as §1, §2, §3, §4

[4] = test system: RS4;11 (BCL-2 dependent acute lymphoblastic leukemia cell line); assay: RS4;11 Cell Proliferation Assay; format: cell-based; conditions: Homo sapiens, RS4;11 cells, read-out: Cellular proliferation assay (IC50, nM) RS4
Outline: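 Viability measured via CellTiter-Glo luminescence after a 48 h, 37 °C exposure to compounds (10 points, highest 1 μM). Seeding was 50,000 RS4;11 cells per well in 10% FBS RPMI-1640; IC50 given as mean.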

[5] = test system: BCL-2 G101V knock-in cell line H96 (derive from RS4;11); assay: Bcl 2-G101V Knock-In RS4;11 Cell Proliferation Assay; format: cell-based; conditions: Homo sapiens, RS4-11, 48 h, RS4;11 Bcl-2 G101V knock-in clone H96, 48 hrs, CellTiter-GLO, read-out: Cellular proliferation assay (IC50, nM) RS4
Outline: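 CellTiter-Glo luminescence after 48 h, 37 °C compound treatment (10 concentrations, maximum 1 μM or 10 μM) gave mean IC50 values. Cells were 50,000 per well of H96, a BCL2-G101V knock-in single clone derived from RS4;11 by Cas9 editing.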

Chain of recombinant human Bcl-2 D103Y protein (P10415 whole entry D103Y): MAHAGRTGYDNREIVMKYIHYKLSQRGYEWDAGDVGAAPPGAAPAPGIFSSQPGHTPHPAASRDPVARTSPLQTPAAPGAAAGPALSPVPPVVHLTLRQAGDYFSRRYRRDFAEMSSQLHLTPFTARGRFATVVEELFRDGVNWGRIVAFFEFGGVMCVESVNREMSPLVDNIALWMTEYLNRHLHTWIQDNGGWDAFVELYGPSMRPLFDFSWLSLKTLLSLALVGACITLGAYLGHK

Row | Structure (SMILES) | IC50 [1] [nM] | Ratio of Bcl-2 D103Y/Bcl-2 WT [1] | half-life at 1 μM [2] [min] | microsomal CLint at 1 μM [2] [µL/min/mg] | half-life at 1 μM [3] [min] | microsomal CLint at 1 μM [3] [µL/min/mg] | IC50 [4] [nM] | IC50 [5] [nM] | ratio of Bcl-2 D103Y/Bcl-2 wt, compared with F91b in WO2019210828 [1]
1 | CC(C)c1ccccc1C1CN(Cc2cccc(F)c2)CCN1C1CC2(CCN(c3ccc(C(=O)NS(=O)(=O)c4ccc(NC[C@H]5CC[C@](C)(O)CC5)c([N+](=O)[O-])c4)c(Oc4cnc5[nH]ccc5c4)c3)CC2)C1 (stereo partly shown) [Example 43, 2-((1H-pyrrolo[2,3-b]pyridin-5-yl)oxy)-4-(2-(4-(3-fluorobenzyl)-2-(2-isopropylphenyl)piperazin-1-yl)-7-azaspiro[3.5]nonan-7-yl)-N-((4-((((1r,4r)-4-hydroxy-4-methylcyclohexyl)methyl)amino)-3-nitrophenyl)sulfonyl)benzamide] | 0.83 | 2.7 | 108 | 12.8 | 193 | 7.1 | 0.48 | 3.27 | –
2 | CC(C)c1ccccc1C1CN(Cc2ccccc2F)CCN1C1CC2(CCN(c3ccc(C(=O)NS(=O)(=O)c4ccc(NC[C@H]5CC[C@](C)(O)CC5)c([N+](=O)[O-])c4)c(Oc4cnc5[nH]ccc5c4)c3)CC2)C1 (stereo partly shown) [Example 46, 2-((1H-pyrrolo[2,3-b]pyridin-5-yl)oxy)-4-(2-(4-(2-fluorobenzyl)-2-(2-isopropylphenyl)piperazin-1-yl)-7-azaspiro[3.5]nonan-7-yl)-N-((4-((((1r,4r)-4-hydroxy-4-methylcyclohexyl)methyl)amino)-3-nitrophenyl)sulfonyl)benzamide] | 1.8 | 5.1 | 153 | 9.1 | 131 | 10.5 | 0.91 | 10.2 | –
3 | COc1ccc(CN2CCN(C3CC4(CCN(c5ccc(C(=O)NS(=O)(=O)c6ccc(NC[C@H]7CC[C@](C)(O)CC7)c([N+](=O)[O-])c6)c(Oc6cnc7[nH]ccc7c6)c5)CC4)C3)C(c3ccccc3C(C)C)C2)c(OC)c1 (stereo partly shown) [Example 48] | 0.2 | 2.8 | 256 | 5.4 | 323 | 4.3 | 0.43 | 1.9 | –
4 | CC(C)c1ccccc1C1CN(Cc2cc(F)cc(F)c2)CCN1C1CC2(CCN(c3ccc(C(=O)NS(=O)(=O)c4ccc(NC[C@H]5CC[C@](C)(O)CC5)c([N+](=O)[O-])c4)c(Oc4cnc5[nH]ccc5c4)c3)CC2)C1 (stereo partly shown) [Example 51, 2-((1H-pyrrolo[2,3-b]pyridin-5-yl)oxy)-4-(2-(4-(3,5-difluorobenzyl)-2-(2-isopropylphenyl)piperazin-1-yl)-7-azaspiro[3.5]nonan-7-yl)-N-((4-((((1r,4r)-4-hydroxy-4-methylcyclohexyl)methyl)amino)-3-nitrophenyl)sulfonyl)benzamide] | 1.5 | 3.5 | 234 | 5.9 | 306 | 4.5 | 0.49 | 4 | –
5 | CC(C)c1ccccc1C1CN(Cc2ccc(F)c(F)c2)CCN1C1CC2(CCN(c3ccc(C(=O)NS(=O)(=O)c4ccc(NC[C@H]5CC[C@](C)(O)CC5)c([N+](=O)[O-])c4)c(Oc4cnc5[nH]ccc5c4)c3)CC2)C1 (stereo partly shown) [Example 52, 2-((1H-pyrrolo[2,3-b]pyridin-5-yl)oxy)-4-(2-(4-(3,4-difluorobenzyl)-2-(2-isopropylphenyl)piperazin-1-yl)-7-azaspiro[3.5]nonan-7-yl)-N-((4-((((1r,4r)-4-hydroxy-4-methylcyclohexyl)methyl)amino)-3-nitrophenyl)sulfonyl)benzamide] | 0.61 | 2.5 | 145 | 9.5 | – | < 1 | 0.36 | 2.7 | –
6 | COc1ccc(CN2CCN(C3CC4(CCN(c5ccc(C(=O)NS(=O)(=O)c6ccc(NC[C@H]7CC[C@](C)(O)CC7)c([N+](=O)[O-])c6)c(Oc6cnc7[nH]ccc7c6)c5)CC4)C3)C(c3ccccc3C(C)C)C2)cn1 (stereo partly shown) [Example 72, 2-((1H-pyrrolo[2,3-b]pyridin-5-yl)oxy)-N-((4-((((1r,4r)-4-hydroxy-4-methylcyclohexyl)methyl)amino)-3-nitrophenyl)sulfonyl)-4-(2-(2-(2-isopropylphenyl)-4-((6-methoxypyridin-3-yl)methyl)piperazin-1-yl)-7-azaspiro[3.5]nonan-7-yl)benzamide] | 0.08 | 1.6 | 491 | 2.8 | 159 | 8.7 | 0.45 | 1.7 | significantly lower
7 | CC(C)c1ccccc1[C@@H]1CN(Cc2cccc3c2OCCO3)CCN1C1CC2(CCN(c3ccc(C(=O)NS(=O)(=O)c4ccc(NC[C@H]5CC[C@](C)(O)CC5)c([N+](=O)[O-])c4)c(Oc4cnc5[nH]ccc5c4)c3)CC2)C1 [Example 79a, 2-((1H-pyrrolo[2,3-b]pyridin-5-yl)oxy)-4-(2-(R-4-((2,3-dihydrobenzo [b][1,4]dioxin-5-yl)methyl)-2-(2-isopropylphenyl)piperazin-1-yl)-7-azaspiro[3.5]nonan-7-yl)-N-((4-((((1r,4r)-4-hydroxy-4-methylcyclohexyl)methyl)amino)-3-nitrophenyl)sulfonyl)benzamide] | 0.2 | 1.9 | 253 | 5.5 | 124 | 11.2 | 0.104 | 0.48 | –
8 | COc1ccc(CN2CCN(C3CC4(CCN(c5ccc(C(=O)NS(=O)(=O)c6ccc(NC[C@H]7CC[C@](C)(O)CC7)c([N+](=O)[O-])c6)c(Oc6cnc7[nH]cc(F)c7c6)c5)CC4)C3)[C@H](c3ccccc3C(C)C)C2)cc1OC [Example 127, 4-(2-((R)-4-(3,4-dimethoxybenzyl)-2-(2-isopropylphenyl)piperazin-1-yl)-7-azaspiro[3.5]nonan-7-yl)-2-((3-fluoro-1H-pyrrolo[2,3-b]pyridin-5-yl)oxy)-N-((4-((((1r,4r)-4-hydroxy-4-methylcyclohexyl)methyl)amino)-3-nitrophenyl)sulfonyl)benzamide] | 0.11 | 1 | – | < 1 | 182 | 7.63 | 0.167 | 0.367 | significantly lower
9 | COc1ccc(CN2CCN(C3CC4(C3)CN(c3ccc(C(=O)NS(=O)(=O)c5ccc(NC[C@H]6CC[C@](C)(O)CC6)c([N+](=O)[O-])c5)c(Oc5cnc6[nH]cc(F)c6c5)c3)C4)[C@H](c3ccccc3C(C)C)C2)cc1OC [Example 141a, 4-(6-((R)-4-(3,4-dimethoxybenzyl)-2-(2-isopropylphenyl)piperazin-1-yl)-2-azaspiro[3.3]heptan-2-yl)-2-((3-fluoro-1H-pyrrolo[2,3-b]pyridin-5-yl)oxy)-N-((4-((((1r,4r)-4-hydroxy-4-methylcyclohexyl)methyl)amino)-3-nitrophenyl)sulfonyl)benzamide] | 0.072 | 1.3 | 343 | 4 | 18100 | 0.07 | 0.166 | 0.268 | significantly lower
10 | COc1ccc(CN2CCN(C3CC4(C3)CN(c3ccc(C(=O)NS(=O)(=O)c5ccc(NC[C@H]6CC[C@](C)(O)CC6)c([N+](=O)[O-])c5)c(Oc5cnc6[nH]ccc6c5)c3)C4)[C@H](c3ccccc3C(C)C)C2)cc1OC [Example 145, 2-((1H-pyrrolo[2,3-b]pyridin-5-yl)oxy)-4-(6-((R)-4-(3,4-dimethoxybenzyl)-2-(2-isopropylphenyl)piperazin-1-yl)-2-azaspiro[3.3]heptan-2-yl)-N-((4-((((1r,4r)-4-hydroxy-4-methylcyclohexyl)methyl)amino)-3-nitrophenyl)sulfonyl)benzamide] | 0.045 | 1.6 | 970 | 1.4 | 196 | 7.1 | 0.104 | 0.23 | significantly lower
